From patent US10206394B2, “Herbicidal compounds” (Syngenta Participations AG, priority 2014, dated 2019) come the findings set out here.

Where two headings read alike, the source gives them in different places.

Holding throughout (experiment): Glasshouse assay for herbicidal activity (pre- and post-emergence), percentage phytotoxicity
Common to all, as to type: in vivo

The subject of assay [1] is Alopecurus myosuroides (ALOMY). The note with it: Alopecurus myosuroides. Summed up: (§1)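 Pot-grown, standard soil. PRE: spray 1 d post-sowing; POST: ~12 d. Glasshouse 24/18 °C (warm spp.) / 20/16 °C (cool spp.), 16 h light, 65% RH, watered 2×/day. Visual % damage, 20 DAA PRE, 15 DAA POST.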
The next assay deals with Avena fatua (AVEFA). The note with it: Avena fatua. The method, boiled down:
as §1

Assay [2] has as its system Echinochloa crus-galli (ECHCG). The note with it: Echinochloa crus-galli. Summed up: as §1
The next assay deals with Lolium perenne (LOLPE). The note with it: Lolium perenne. The method, boiled down: as §1
[3] abbreviates: post-emergence, 360 h, Rate 250 g/ha, post-emergence, assessed visually 15 DAA, 100%=total damage, 0%=no damage, read-out: Post-emergence herbicidal activity (percentage phytotoxicity) ALOMY POST.
The mark [4] stands for this setting: pre-emergence, 480 h, Rate 250 g/ha, pre-emergence, assessed visually 20 DAA, 100%=total damage, 0%=no damage, read-out: Pre-emergence herbicidal activity (percentage phytotoxicity) ALOMY PRE.
Setting [5] is: post-emergence, 360 h, Rate 250 g/ha, post-emergence, assessed visually 15 DAA, 100%=total damage, 0%=no damage, read-out: Post-emergence herbicidal activity (percentage phytotoxicity) AVEFA POST.
Where [6] appears, read: pre-emergence, 480 h, Rate 250 g/ha, pre-emergence, assessed visually 20 DAA, 100%=total damage, 0%=no damage, read-out: Pre-emergence herbicidal activity (percentage phytotoxicity) AVEFA PRE.
Setting [7] is: post-emergence, 360 h, Rate 250 g/ha, post-emergence, assessed visually 15 DAA, 100%=total damage, 0%=no damage, read-out: Post-emergence herbicidal activity (percentage phytotoxicity) ECHCG POST.
[8] abbreviates: pre-emergence, 480 h, Rate 250 g/ha, pre-emergence, assessed visually 20 DAA, 100%=total damage, 0%=no damage, read-out: Pre-emergence herbicidal activity (percentage phytotoxicity) ECHCG PRE.
Setting [9] is: post-emergence, 360 h, Rate 250 g/ha, post-emergence, assessed visually 15 DAA, 100%=total damage, 0%=no damage, read-out: Post-emergence herbicidal activity (percentage phytotoxicity) LOLPE POST.
Setting [10] is: pre-emergence, 480 h, Rate 250 g/ha, pre-emergence, assessed visually 20 DAA, 100%=total damage, 0%=no damage, read-out: Pre-emergence herbicidal activity (percentage phytotoxicity) LOLPE PRE.
[11] abbreviates: post-emergence, 360 h, 250 g/ha, post-emergence, 15 DAA, visual assessment (100%=total damage, 0%=no damage), read-out: Post-emergence herbicidal activity (percentage phytotoxicity) ALOMY POST.
The mark [12] stands for this setting: pre-emergence, 480 h, 250 g/ha, pre-emergence, 20 DAA, visual assessment (100%=total damage, 0%=no damage), read-out: Pre-emergence herbicidal activity (percentage phytotoxicity) ALOMY PRE.
Where [13] appears, read: post-emergence, 360 h, 250 g/ha, post-emergence, 15 DAA, visual assessment (100%=total damage, 0%=no damage), read-out: Post-emergence herbicidal activity (percentage phytotoxicity) AVEFA POST.
[14] abbreviates: pre-emergence, 480 h, 250 g/ha, pre-emergence, 20 DAA, visual assessment (100%=total damage, 0%=no damage), read-out: Pre-emergence herbicidal activity (percentage phytotoxicity) AVEFA PRE.
Where [15] appears, read: post-emergence, 360 h, 250 g/ha, post-emergence, 15 DAA, visual assessment (100%=total damage, 0%=no damage), read-out: Post-emergence herbicidal activity (percentage phytotoxicity) ECHCG POST.
The mark [16] stands for this setting: pre-emergence, 480 h, 250 g/ha, pre-emergence, 20 DAA, visual assessment (100%=total damage, 0%=no damage), read-out: Pre-emergence herbicidal activity (percentage phytotoxicity) ECHCG PRE.
[17] abbreviates: post-emergence, 360 h, 250 g/ha, post-emergence, 15 DAA, visual assessment (100%=total damage, 0%=no damage), read-out: Post-emergence herbicidal activity (percentage phytotoxicity) LOLPE POST.
The mark [18] stands for this setting: pre-emergence, 480 h, 250 g/ha, pre-emergence, 20 DAA, visual assessment (100%=total damage, 0%=no damage), read-out: Pre-emergence herbicidal activity (percentage phytotoxicity) LOLPE PRE.
Where [19] appears, read: post-emergence, 360 h, POST-emergence, rate 250 g/ha, visual score 15 DAA (100%=total damage, 0%=no damage), read-out: Post-emergence herbicidal activity (percentage phytotoxicity) ALOMY POST.
[20] abbreviates: pre-emergence, 480 h, PRE-emergence, rate 250 g/ha, visual score 20 DAA (100%=total damage, 0%=no damage), read-out: Pre-emergence herbicidal activity (percentage phytotoxicity) ALOMY PRE.
[21] abbreviates: post-emergence, 360 h, POST-emergence, rate 250 g/ha, visual score 15 DAA (100%=total damage, 0%=no damage), read-out: Post-emergence herbicidal activity (percentage phytotoxicity) AVEFA POST.
Setting [22] is: pre-emergence, 480 h, PRE-emergence, rate 250 g/ha, visual score 20 DAA (100%=total damage, 0%=no damage), read-out: Pre-emergence herbicidal activity (percentage phytotoxicity) AVEFA PRE.
Where [23] appears, read: post-emergence, 360 h, POST-emergence, rate 250 g/ha, visual score 15 DAA (100%=total damage, 0%=no damage), read-out: Post-emergence herbicidal activity (percentage phytotoxicity) ECHCG POST.
Where [24] appears, read: pre-emergence, 480 h, PRE-emergence, rate 250 g/ha, visual score 20 DAA (100%=total damage, 0%=no damage), read-out: Pre-emergence herbicidal activity (percentage phytotoxicity) ECHCG PRE.
The mark [25] stands for this setting: post-emergence, 360 h, POST-emergence, rate 250 g/ha, visual score 15 DAA (100%=total damage, 0%=no damage), read-out: Post-emergence herbicidal activity (percentage phytotoxicity) LOLPE POST.
[26] abbreviates: pre-emergence, 480 h, PRE-emergence, rate 250 g/ha, visual score 20 DAA (100%=total damage, 0%=no damage), read-out: Pre-emergence herbicidal activity (percentage phytotoxicity) LOLPE PRE.

Turning to `Cc1cc(-c2ccc(C#N)cn2)cc(C)c1C1C(=O)CC(CC(=O)NCc2cccs2)C1=O` (stereo not drawn) [Compound A156], the pest or weed control at 250 g/ha was found to be 70% in assay [1] (setting [3]); 60% in assay [1] (setting [4]); 80% with Avena fatua (AVEFA) (setting [5]); 70% in the assay with Avena fatua (AVEFA) (setting [6]); 100% in assay [2] (setting [7]); 100% in assay [2] (setting [8]). In addition, the pest or weed control at 250 g/ha in the assay on Lolium perenne (LOLPE) (setting [9]) and in the assay on Lolium perenne (LOLPE) (setting [10]) was 80% each time.
Consider `C=CCCNC(=O)CC1CC(=O)C(c2c(C)cc(-n3cc(Cl)cn3)cc2C)C1=O` (stereo not drawn) [Compound A76], for which the pest or weed control at 250 g/ha in assay [1] (setting [3]) worked out at 100%; in assay [1] (setting [4]) it was 90%; in the assay on Avena fatua (AVEFA) (setting [5]), 90%; in the assay on Avena fatua (AVEFA) (setting [6]), 90%; in assay [2] (setting [7]), 100%; in assay [2] (setting [8]) it was 100%. The pest or weed control at 250 g/ha turned out to be 80% in the assay on Lolium perenne (LOLPE) (setting [9]) and 90% in the assay with Lolium perenne (LOLPE) (setting [10]).
Regarding `CONC(=O)CC1CC(=O)C(c2c(C)cc(C)cc2C)C1=O` (stereo not drawn) [Compound B96], the pest or weed control at 250 g/ha in assay [1] (setting [11]) worked out at 20%; in assay [1] (setting [12]) it was 0%; in the assay with Avena fatua (AVEFA) (setting [13]), 60%; in the assay on Avena fatua (AVEFA) (setting [14]), 0%; in assay [2] (setting [15]), 90%; in assay [2] (setting [16]), 30%. Further, the pest or weed control at 250 g/ha with Lolium perenne (LOLPE) (setting [17]) and in the assay on Lolium perenne (LOLPE) (setting [18]) was 80% each time.
As for `C#CCNC(=O)CC1CC(=O)C(c2c(C)cc(C)cc2C)C1=O` (stereo not drawn) [Compound A10], the pest or weed control at 250 g/ha in assay [1] (setting [3]) is 80%; in assay [1] (setting [4]), 70%; with Avena fatua (AVEFA) (setting [5]), 60%; with Avena fatua (AVEFA) (setting [6]), 70%; in assay [2] (setting [7]) it was 90%; in assay [2] (setting [8]), 90%. Moreover, the pest or weed control at 250 g/ha in the assay with Lolium perenne (LOLPE) (setting [9]) and with Lolium perenne (LOLPE) (setting [10]) was 90% each time.
On to `Cc1cc(Br)cc(C)c1C1C(=O)CC(CC(=O)NCc2cccc(F)c2)C1=O` (stereo not drawn) [Compound B130], for which the pest or weed control at 250 g/ha in assay [1] (setting [11]) worked out at 90%; in assay [1] (setting [12]), 80%; in the assay with Avena fatua (AVEFA) (setting [13]), 90%; in the assay with Avena fatua (AVEFA) (setting [14]), 40%; in assay [2] (setting [15]), 90%; in assay [2] (setting [16]), 70%. Moreover, the pest or weed control at 250 g/ha with Lolium perenne (LOLPE) (setting [17]) came out at 100%; in the assay with Lolium perenne (LOLPE) (setting [18]), 80%.
As for `C#CCN(C)C(=O)CC1CC(=O)C(c2c(C)cc(-c3ncc(F)cn3)cc2C)C1=O` (stereo not drawn) [Compound B334], the pest or weed control at 250 g/ha in assay [1] (post-emergence, 360 h, Rate 250 g/ha, post-emergence, visual assessment 15 DAA, 100%=total damage, 0%=no damage, read-out: Post-emergence herbicidal activity (percentage phytotoxicity) ALOMY POST) is 100%; in assay [1] (pre-emergence, 480 h, Rate 250 g/ha, pre-emergence, visual assessment 20 DAA, 100%=total damage, 0%=no damage, read-out: Pre-emergence herbicidal activity (percentage phytotoxicity) ALOMY PRE) it was 100%; with Avena fatua (AVEFA) (post-emergence, 360 h, Rate 250 g/ha, post-emergence, visual assessment 15 DAA, 100%=total damage, 0%=no damage, read-out: Post-emergence herbicidal activity (percentage phytotoxicity) AVEFA POST), 100%; in the assay with Avena fatua (AVEFA) (pre-emergence, 480 h, Rate 250 g/ha, pre-emergence, visual assessment 20 DAA, 100%=total damage, 0%=no damage, read-out: Pre-emergence herbicidal activity (percentage phytotoxicity) AVEFA PRE) it was 100%; in assay [2] (post-emergence, 360 h, Rate 250 g/ha, post-emergence, visual assessment 15 DAA, 100%=total damage, 0%=no damage, read-out: Post-emergence herbicidal activity (percentage phytotoxicity) ECHCG POST) it was 100%; in assay [2] (pre-emergence, 480 h, Rate 250 g/ha, pre-emergence, visual assessment 20 DAA, 100%=total damage, 0%=no damage, read-out: Pre-emergence herbicidal activity (percentage phytotoxicity) ECHCG PRE), 100%. In addition, the pest or weed control at 250 g/ha with Lolium perenne (LOLPE) (post-emergence, 360 h, Rate 250 g/ha, post-emergence, visual assessment 15 DAA, 100%=total damage, 0%=no damage, read-out: Post-emergence herbicidal activity (percentage phytotoxicity) LOLPE POST) was 90%; with Lolium perenne (LOLPE) (pre-emergence, 480 h, Rate 250 g/ha, pre-emergence, visual assessment 20 DAA, 100%=total damage, 0%=no damage, read-out: Pre-emergence herbicidal activity (percentage phytotoxicity) LOLPE PRE) it was 100%.
Take `CCC(C)(C)NC(=O)CC1CC(=O)C(c2c(C)cc(-c3ncc(Cl)cc3F)cc2C)C1=O` (stereo not drawn) [Compound A46]: the pest or weed control at 250 g/ha in assay [1] (setting [3]) was found to be 100%; in assay [1] (setting [4]), 100%; in the assay on Avena fatua (AVEFA) (setting [5]), 100%; in the assay on Avena fatua (AVEFA) (setting [6]) it was 90%; in assay [2] (setting [7]) it was 100%; in assay [2] (setting [8]), 100%. Also, the values for the pest or weed control at 250 g/ha with Lolium perenne (LOLPE) (setting [9]) and with Lolium perenne (LOLPE) (setting [10]) were 100% and 90%, respectively.
As for `C/C=C/c1cc(C)c(C2C(=O)CC(CC(=O)NCC3CC3)C2=O)c(C)c1` (stereo not drawn) [Compound B247], the pest or weed control at 250 g/ha was 100% in assay [1] (setting [19]); 90% in assay [1] (setting [20]); 100% with Avena fatua (AVEFA) (setting [21]); 80% in the assay with Avena fatua (AVEFA) (setting [22]); 100% in assay [2] (setting [23]); 60% in assay [2] (setting [24]). Also, the pest or weed control at 250 g/ha is 100% in the assay with Lolium perenne (LOLPE) (setting [25]) and 80% in the assay on Lolium perenne (LOLPE) (setting [26]).
Turning to `COCC(C)(C)NC(=O)CC1CC(=O)C(c2c(C)cc(C)cc2C)C1=O` (stereo not drawn) [Compound B180], the pest or weed control at 250 g/ha is 90% in assay [1] (setting [19]); 90% in assay [1] (setting [20]); 90% with Avena fatua (AVEFA) (setting [21]); 60% in the assay with Avena fatua (AVEFA) (setting [22]); 90% in assay [2] (setting [23]); 90% in assay [2] (setting [24]). Moreover, the pest or weed control at 250 g/ha stood at 80% in the assay on Lolium perenne (LOLPE) (setting [25]) and 90% with Lolium perenne (LOLPE) (setting [26]).
